Source: patent US7109243B2 (IRM LLC, priority 2003, dated 2006)
One block for each compound: values may come before it.

Columns and labels:
Cathepsin S = Cathepsin S (Homo sapiens, UniProt P25774); assay: Cathepsin S inhibition assay (fluorogenic peptide substrate); assay type: biochemical; settings: Table II, compounds of Formula I; read-out: Ki Cat. S
Procedure: “Inhibition constant”, Ki, is the dissociation constant of the enzyme-inhibitor complex, or the reciprocal of the binding affinity of the inhibitor to the enzyme. […] The inhibited rates are then fit by nonlinear regression to the following equation: […]
The assumption being made for the classical inhibition described above is that the free inhibitor concentration is equal to the total inhibitor concentration.
Kinetic measurements are performed in a total reaction volume of 30 μl in 384-well microtiter plates. […] The reactions are initiated by adding the substrate, acetyl-histidine-proline-valine-lysine-amino carbamoyl coumarin, to a final concentration of 50 μM. The rate of substrate hydrolysis is measured by monitoring the increase in fluorescence at an excitation wavelength of 380 nm and an emission wavelength of 450 nm that results from cleavage of the aniline bond in the substrate by the enzyme.

Cathepsin K = target: T1, Cathepsin K (Homo sapiens, UniProt P43235); assay: Cathepsin K inhibition assay (fluorogenic peptide substrate); selectivity ratio vs cathepsin S; assay type: biochemical; settings: ratio of cathepsin K inhibition constant to cathepsin S inhibition constant; Table II
T1 sequence (P43235 115-329): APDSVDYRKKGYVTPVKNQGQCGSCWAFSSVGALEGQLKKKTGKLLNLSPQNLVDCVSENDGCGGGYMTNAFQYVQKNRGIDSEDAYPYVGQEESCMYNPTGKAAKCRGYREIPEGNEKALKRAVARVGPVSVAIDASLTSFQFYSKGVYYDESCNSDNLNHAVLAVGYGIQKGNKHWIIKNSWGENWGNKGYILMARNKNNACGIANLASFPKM
Procedure: The optimal substrate for cathepsin K, acetyl-lysine-histidine-proline-lysine-amino carbamoyl coumarin, was identified from screening a combinatorial library of fluorogenic peptide substrates (Harris, J. L., B. J. Backes, et al., Proc Natl Acad Sci USA 2000, 97(14), 7754-9). Kinetic measurements are performed in a total reaction volume of 30 μl in 384-well microtiter plates. […] The reactions are initiated by adding the substrate, acetyl-lysine-histidine-proline-lysine-amino carbamoyl coumarin, to a final concentration of 40 μM. The rate of substrate hydrolysis is measured by monitoring the increase in fluorescence at an excitation wavelength of 380 nm and an emission wavelength of 450 nm that results from cleavage of the aniline bond in the substrate by the enzyme. The apparent inhibition constants for the compounds are determined from the enzyme progress curves ([…]. Elrod, et al., Anal Biochem 2000, 286(1), 45-50) and are then used to calculate the inhibition constants for competitive inhibitors. Selectivity for cathepsin S in the presence of cathepsin isozymes was determined by the ratio of the cathepsin isozyme inhibition constant of a compound of the present invention to the cathepsin S inhibition constant of the same compound.

Chain of Cathepsin S (P25774 115-331, species assumed): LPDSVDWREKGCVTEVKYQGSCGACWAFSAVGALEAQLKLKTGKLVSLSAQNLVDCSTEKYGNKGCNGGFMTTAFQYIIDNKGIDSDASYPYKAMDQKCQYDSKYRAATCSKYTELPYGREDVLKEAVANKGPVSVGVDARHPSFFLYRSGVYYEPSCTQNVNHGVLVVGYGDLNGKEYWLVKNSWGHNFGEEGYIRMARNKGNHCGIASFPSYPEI

Structure (SMILES): COc1ccc(NCCNC(=O)C(NC(=O)c2cccc(C)c2)c2ccc(Cl)cc2)cc1 (racemic) [Compound 8, (±)-N-((2-(4-methoxyphenylamino)ethylcarbamoyl)(4-chlorophenyl)methyl)-3-methylbenzamide]
Ki (Cathepsin S): < 100 nM | Selectivity for Cat. S over Cat. K (Cathepsin K): +++ (+++, >1000)

Structure (SMILES): COc1ccc(NCCNC(=O)[C@H](Cc2ccc(Oc3cccc(C)c3C)cc2)NC(=O)c2cccc(C)c2)cc1 [Compound 7, (S)-N-{2-[4-(2,3-Dimethyl-phenoxy)-phenyl]-1-[2-(4-methoxy-phenylamino)-ethylcarbamoyl]-ethyl}-3-methyl-benzamide]
Ki (Cathepsin S): < 1000 nM | Selectivity for Cat. S over Cat. K (Cathepsin K): ++ (++, >100)

Structure (SMILES): COc1ccc(NCCNC(=O)[C@H](CC2CCCCC2)NC(=O)c2cc(C)c(OCc3ccccc3)c(C)c2)cc1 [Compound 110, (S)-4-Benzyloxy-N-{2-cyclohexyl-1-[2-(4-methoxy-phenylamino)-ethylcarbamoyl]-ethyl}-3,5-dimethyl-benzamide]
Ki (Cathepsin S): < 100 nM | Selectivity for Cat. S over Cat. K (Cathepsin K): ++ (++, >100)

Structure (SMILES): COc1ccc(NCCNC(=O)[C@H](Cc2ccccc2)NC(=O)Nc2cccc3ccccc23)cc1 [Compound 101, (S)-N-[2-(4-Methoxy-phenylamino)-ethyl]-2-(3-naphthalen-1-yl-ureido)-3-phenyl-propionamide]
Ki (Cathepsin S): < 1000 nM | Selectivity for Cat. S over Cat. K (Cathepsin K): + (+, >10)

Structure (SMILES): COc1ccc(NCCNC(=O)[C@H](CCC2CCCCC2)NC(=O)c2cc3cc(Cl)ccc3o2)cc1 [Compound 134, (S)-5-Chloro-benzofuran-2-carboxylic acid {3-cyclohexyl-1-[2-(4-methoxy-phenylamino)-ethylcarbamoyl]-propyl}-amide]
Ki (Cathepsin S): < 1000 nM | Selectivity for Cat. S over Cat. K (Cathepsin K): ++ (++, >100)

Structure (SMILES): COc1ccc(NCCNC(=O)[C@H](Cc2ccccc2)NC(=O)c2cc(C)c(OCc3ccccc3)c(C)c2)cc1 [Compound 20, (S)-4-Benzyloxy-N-{1-[2-(4-methoxy-phenylamino)-ethylcarbamoyl]-2-phenyl-ethyl}-3,5-dimethyl-benzamide]
Ki (Cathepsin S): < 1000 nM | Selectivity for Cat. S over Cat. K (Cathepsin K): ++ (++, >100)

Structure (SMILES): O=C(Cc1c[nH]c2ccccc12)NC(CC1CCCCC1)C(=O)NCCNc1ccc(F)cc1 (stereo not drawn) [Compound 83, 3-Cyclohexyl-N-[2-(4-fluoro-phenylamino)-ethyl]-2-(2-1H-indol-3-yl-acetylamino)-propionamide]
Ki (Cathepsin S): < 100 nM | Selectivity for Cat. S over Cat. K (Cathepsin K): ++ (++, >100)

Structure (SMILES): COc1ccc(NCCNC(=O)[C@H](Cc2ccccc2)NC(=O)Nc2ccccc2)cc1 [Compound 57, (S)-N-[2-(4-Methoxy-phenylamino)-ethyl]-3-phenyl-2-(3-phenyl-ureido)-propionamide]
Ki (Cathepsin S): < 1000 nM | Selectivity for Cat. S over Cat. K (Cathepsin K): + (+, >10)

Structure (SMILES): COc1ccc(NCCNC(=O)[C@H](CC2CCCCC2)NC(=O)c2cccc(C)c2Cl)cc1 [Compound 108, (S)-2-Chloro-N-{2-cyclohexyl-1-[2-(4-methoxy-phenylamino)-ethylcarbamoyl]-ethyl}-3-methyl-benzamide]
Ki (Cathepsin S): < 100 nM | Selectivity for Cat. S over Cat. K (Cathepsin K): ++ (++, >100)

Structure (SMILES): COc1ccc(NCCNC(=O)[C@H](Cc2ccc(I)cc2)NC(=O)c2cccc(C)c2)cc1 [Compound 242, (S)-N-{2-(4-Iodo-phenyl)-1-[2-(4-methoxy-phenylamino)-ethylcarbamoyl]-ethyl}-3-methyl-benzamide]
Ki (Cathepsin S): < 100 nM | Selectivity for Cat. S over Cat. K (Cathepsin K): +++ (+++, >1000)

Structure (SMILES): COc1ccc(NCCNC(=O)[C@H](CC2CCCCC2)NC(=O)c2ccc(C#N)cc2)cc1 [Compound 121, (S)-4-Cyano-N-{2-cyclohexyl-1-[2-(4-methoxy-phenylamino)-ethylcarbamoyl]-ethyl}-benzamide]
Ki (Cathepsin S): < 100 nM | Selectivity for Cat. S over Cat. K (Cathepsin K): + (+, >10)

Structure (SMILES): COc1ccc(NCCNC(=O)[C@H](CC2CCCC2)NC(=O)c2ccc(-c3cccc(C(F)(F)F)c3)o2)cc1 [Compound 6, N-((S)-1-(2-(4-methoxyphenylamino)ethylcarbamoyl)-2-cyclopentylethyl)-5-(3-(trifluoromethyl)phenyl)furan-2-carboxamide]
Ki (Cathepsin S): < 100 nM | Selectivity for Cat. S over Cat. K (Cathepsin K): ++ (++, >100)

Structure (SMILES): COc1ccc(NCCNC(=O)C(NC(=O)c2cccc(C)c2)c2ccc(OCc3ccccc3)cc2)cc1 (stereo not drawn) [Compound 217, N-{(4-Benzyloxy-phenyl)-[2-(4-methoxy-phenylamino)-ethylcarbamoyl]-methyl}-3-methyl-benzamide]
Ki (Cathepsin S): < 1000 nM | Selectivity for Cat. S over Cat. K (Cathepsin K): +++ (+++, >1000)

Structure (SMILES): COc1ccc(NCCNC(=O)[C@H](Cc2ccc(Oc3cc(Cl)cc(Cl)c3)cc2)NC(=O)c2cccc(C)c2)cc1 [Compound 18, (S)-N-{2-[4-(3,5-Dichloro-phenoxy)-phenyl]-1-[2-(4-methoxy-phenylamino)-ethylcarbamoyl]-ethyl}-3-methyl-benzamide]
Ki (Cathepsin S): < 10000 nM | Selectivity for Cat. S over Cat. K (Cathepsin K): + (+, >10)

Next, values leading:

Ki (Cathepsin S): < 1000 nM | Selectivity for Cat. S over Cat. K (Cathepsin K): ++ (++, >100)
Structure (SMILES): COc1ccc(NCCNC(=O)[C@H](Cc2ccc(-c3cnc(OC)nc3OC)cc2)NC(=O)c2cccc(C)c2)cc1 [Compound 291, (S)-N-{2-[4-(2,4-Dimethoxy-pyrimidin-5-yl)-phenyl]-1-[2-(4-methoxy-phenylamino)-ethylcarbamoyl]-ethyl}-3-methyl-benzamide]

Ki (Cathepsin S): < 100 nM | Selectivity for Cat. S over Cat. K (Cathepsin K): ++ (++, >100)
Structure (SMILES): CC(C(=O)NC(CC1CCCCC1)C(=O)NCCNc1ccc(F)cc1)c1ccc(-c2ccccc2)c(F)c1 [Compound 308, N-(S)-{2-cyclohexyl-1-[2-(4-fluoro-phenylamino)-ethylcarbamoyl]-ethyl}-2-(2-fluoro-biphenyl-4-yl)-propionamide]

Ki (Cathepsin S): < 1000 nM | Selectivity for Cat. S over Cat. K (Cathepsin K): ++ (++, >100)
Structure (SMILES): COc1ccc(NCCNC(=O)[C@H](Cc2ccc(-c3ccc(O)cc3)cc2)NC(=O)c2cccc(C)c2)cc1 [Compound 289, (S)-N-{2-(4′-Hydroxy-biphenyl-4-yl)-1-[2-(4-methoxy-phenylamino)-ethylcarbamoyl]-ethyl}-3-methyl-benzamide]

Ki (Cathepsin S): < 100 nM | Selectivity for Cat. S over Cat. K (Cathepsin K): ++ (++, >100)
Structure (SMILES): N#Cc1ccc(C(=O)N[C@@H](CC2CCCCC2)C(=O)NCCNc2ccc(F)cc2)cc1 [Compound 316, 4-Cyano-N-(S)-{2-cyclohexyl-1-[2-(4-fluoro-phenylamino)-ethylcarbamoyl]-ethyl}-benzamide]

Ki (Cathepsin S): < 100 nM | Selectivity for Cat. S over Cat. K (Cathepsin K): +++ (+++, >1000)
Structure (SMILES): COc1ccc(NCCNC(=O)[C@H](Cc2c[nH]c3ccccc23)NC(=O)c2cccc(C)c2)cc1 [Compound 257, (S)-N-{2-(1H-Indol-3-yl)-1-[2-(4-methoxy-phenylamino)-ethylcarbamoyl]-ethyl}-3-methyl-benzamide]

Ki (Cathepsin S): < 100 nM | Selectivity for Cat. S over Cat. K (Cathepsin K): +++ (+++, >1000)
Structure (SMILES): COc1ccc(NCCNC(=O)[C@H](Cc2ccc(-c3ccsc3)cc2)NC(=O)c2cccc(C)c2)cc1 [Compound 275, (S)-N-[1-[2-(4-Methoxy-phenylamino)-ethylcarbamoyl]-2-(4-thiophen-3-yl-phenyl)-ethyl]-3-methyl-benzamide]

Ki (Cathepsin S): < 1000 nM | Selectivity for Cat. S over Cat. K (Cathepsin K): ++ (++, >100)
Structure (SMILES): COc1ccc(NCCNC(=O)[C@H](Cc2ccc(-c3cc(F)ccc3OC)cc2)NC(=O)c2cccc(C)c2)cc1 [Compound 283, (S)-N-{2-(5′-Fluoro-2′-methoxy-biphenyl-4-yl)-1-[2-(4-methoxy-phenylamino)-ethylcarbamoyl]-ethyl}-3-methyl-benzamide]
